Measured values taken from patent US8455549B2, “Carbonylamino derivatives useful for the treatment of certain inflammatory disorders” (Aniona Aps, priority 0207, dated 2013).

System: DNBS-induced distal colitis
Assay: Inhibition of 2,4-Dinitrobenzenesulfonic Acid (DNBS)-induced distal colitis in rats
Type: in vivo, rat
Details: PO bid × 7, dose not specified
Experimental: Test substances A and B were evaluated for possible inhibition of 2,4-Dinitrobenzenesulfonic Acid (DNBS)-induced distal colitis in rats, which is a model of inflammatory bowel disease. The test compounds were soluble in a mixture of Cremophore EL, PEG400 and distilled water (10:10:80). Test substance was administered orally (PO) twice daily for 7 consecutive days. The dosing volume used was 10 ml/kg for PO. For test of Compound A groups of 10 Wistar derived male rats (BioLasco Taiwan) weighing 200±10 g were used. For test of Compound B groups of 5 Wistar derived male rats (BioLasco Taiwan) weighing 210±5 g were used. […] During the experiment, faecal occult blood and stool consistency were monitored daily. […] Also, the presence of colonic ulceration after removal and weighing of each colon (a macroscopic damage score) was recorded. […] The colon-to-body weight ratio was calculated according to the formula: (A) Colon-to-Body weight ratio (Colon weight/100 g B. W.) for each rat in respective treatment groups (vehicle blank, vehicle+DNBS, Test substance+DNBS and positive reference agent+DNBS) (B) The Net Increase of Colon weight/100 g B. W. For “vehicle+DNBS”: [(vehicle+DNBS)−(vehicle blank)] mean value of colon-to-body weight ratio For “test substance+DNBS”: [(test substance+DNBS)−(vehicle blank)] mean value of colon-to-body weight ratio (C) The percent decrease of colon weight/100 g B. Wt. […]

SMILES | stool consistency, occult faecal blood and macroscopic damage (adhesion and ulcers) in the colon
NC(=O)C(c1ccccc1)(c1ccc(F)cc1)c1ccc(F)cc1 [Compound B, 2,2-Bis-(4-fluoro-phenyl)-2-phenyl-acetamide] | improved
CC(C)C(C(N)=O)(c1ccc(F)cc1)c1ccc(F)cc1 [Compound A, 2,2-Bis-(4-fluoro-phenyl)-3-methyl-butyramide] | improved
